Results taken from article PMC12390684 (Viruses, 2025).
Numbered stars: 1 amine (or outer) side, 2 acyl side, 3 side chain; on linkers, the order of the positions; unused ones are H or OH. Bridge positions count the residues as written; N and C are the ends. Square brackets hold non-standard residues; d marks the D form. Peptide text beside a SMILES is read from it. I, II: the chains in the order shown. Actinocin(9to1) = Cc1c2oc3c(C)ccc(C(=O)[*:1])c3nc-2c(C(=O)[*:2])c(N)c1=O; dNMeL = CN[C@H](CC(C)C)C(=O)O; NMeV = CN[C@H](C(=O)O)C(C)C; Hiv = CC(C)[C@H](O)C(=O)O; Sar = CNCC(=O)O

Target: IN-GCN2 interaction (6xHis-IN / GST-GCN2) (UniProt P04585+Q9P2K8)
Assay: biochemical
Assay type: binding, HIV-1 IN; human GCN2
Details: screen, 100 µM; inactive = within 10% of the DMSO control

Sequence of IN-GCN2 interaction (6xHis-IN / GST-GCN2) (Q9P2K8 192-1024, other chains not shown): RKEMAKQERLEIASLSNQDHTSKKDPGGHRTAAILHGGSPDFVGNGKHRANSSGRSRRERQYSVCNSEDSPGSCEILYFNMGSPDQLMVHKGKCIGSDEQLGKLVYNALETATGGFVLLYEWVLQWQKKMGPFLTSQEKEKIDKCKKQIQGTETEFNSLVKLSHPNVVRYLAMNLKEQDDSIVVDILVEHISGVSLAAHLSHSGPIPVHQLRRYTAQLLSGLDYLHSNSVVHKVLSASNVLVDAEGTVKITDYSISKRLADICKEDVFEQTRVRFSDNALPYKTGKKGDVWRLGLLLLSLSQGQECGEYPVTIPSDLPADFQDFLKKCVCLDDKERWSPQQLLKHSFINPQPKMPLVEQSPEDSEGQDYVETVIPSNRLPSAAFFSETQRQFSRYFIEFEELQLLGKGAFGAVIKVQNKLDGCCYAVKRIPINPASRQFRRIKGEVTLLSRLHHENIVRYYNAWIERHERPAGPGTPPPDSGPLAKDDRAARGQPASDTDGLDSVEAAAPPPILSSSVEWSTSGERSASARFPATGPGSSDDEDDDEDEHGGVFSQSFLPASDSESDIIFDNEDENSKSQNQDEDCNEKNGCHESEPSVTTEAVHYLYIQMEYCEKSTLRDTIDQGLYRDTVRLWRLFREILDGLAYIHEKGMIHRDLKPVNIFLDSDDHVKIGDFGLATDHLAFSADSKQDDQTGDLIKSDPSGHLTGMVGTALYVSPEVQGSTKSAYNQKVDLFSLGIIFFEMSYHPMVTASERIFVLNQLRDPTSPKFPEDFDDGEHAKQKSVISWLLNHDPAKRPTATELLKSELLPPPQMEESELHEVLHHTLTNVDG

| SMILES | effect on IN-GCN2 interaction in the screen, in words |
| --- | --- |
| COc1ccc2c(c1OC)CN1CCc3cc4c(cc3C1C2)OCO4 (centres unmarked) [NSC36351] | inactive |
| COc1cc2c3c(c1O)-c1ccccc1C[C@@H]3N(C)CC2 [NSC785159] | inactive |

Same assay, conditions: screen, single dose 100 µM, single replicate; residual AlphaLISA signal normalized to DMSO control

| SMILES | IN-GCN2 interaction (%) |
| --- | --- |
| COC1=CC(=O)C(C)=CC1=O [NSC3071] | 99.07% |
| COc1cc2c3c(c1O)-c1cc(O)ccc1C[C@H]3N(C)CC2 [NSC785167] | 75.29% |
| Cc1c2oc3c(C)ccc(C(=O)N[C@@H]4C(=O)N[C@H](C(C)C)C(=O)N5CCC[C@H]5C(=O)N(C)CC(=O)N(C)[C@@H](C(C)C)C(=O)O[C@@H]4C)c3nc-2c(C(=O)N[C@@H]2C(=O)N[C@H](C(C)C)C(=O)N3CCC[C@H]3C(=O)N(C)CC(=O)N(C)[C@@H](C(C)C)C(=O)O[C@@H]2C)c(N)c1=O [NSC3053] (I: T[dV]P[Sar][NMeV] / II: T[dV]P[Sar][NMeV]; ester I:1-I:C, II:1-II:C; linker I:N-II:N via Actinocin(9to1)) | 121.53% |
| c1ccc2c(c1)cc1c3c(cc4c(c32)OCO4)CCN1 [NSC785156] | 39.07% |
| C[C@H]1CCC/C=C/[C@@H]2C[C@H](O)C[C@H]2[C@H](O)/C=C/C(=O)O1 [NSC89671] | 129.13% |
| O=C(O)CC(CC(=O)O)C(=O)O [NSC2347] | 84.06% |
| COc1ccc2c(c1O)-c1c(OC)c(OC)cc3c1[C@H](C2)N(C)CC3 [NSC32979] | 119.47% |
| C=C1C(=O)C23C(O)C1CCC2C12CCCC(C)(COC(C)=O)C1C(O)C3(O)OC2 (centres unmarked) [NSC642099] | 95.31% |
| COC1=C[C@@H]2[C@@H]3Cc4ccc(OC)c(O)c4[C@]2(CCN3C)CC1=O [NSC785175] | 87.66% |
| CC(C)=CCc1ccc(O)c(=O)cc1C(C)C [NSC43339] | 101.87% |
| CC(O)CCC(=O)c1ccoc1 (centres unmarked) [NSC349438] | 84.65% |
| CC[C@](C)(O)C(=O)O[C@H]1C(=O)O[C@@H]2C[C@H]3C(C)=C[C@H](O)[C@@H](O)[C@]3(C)[C@H]3[C@]4(O)OC[C@]32[C@@H]1[C@@H](C)[C@H]4O [NSC14975] | 117.58% |
| CC1(C)C[C@]23[C@@H]4COC(=O)[C@H]2CC[C@H]1[C@@H]3CC4=O [NSC284437] | 100.65% |
| C[C@@H]1O[C@@H](O[C@@H]2C=C3CC[C@@H]4[C@H](CC[C@]5(C)[C@@H](c6ccc(=O)oc6)CC[C@]45O)[C@@]3(C)CC2)[C@H](O)[C@H](O)[C@H]1O [NSC7521] | 97.97% |
| C=C(NC(=O)C(=C)NC(=O)c1csc(C2=NC3c4csc(n4)C4NC(=O)c5csc(n5)C(C(C)(O)C(C)O)NC(=O)C5CSC(=N5)/C(=C\C)NC(=O)C(C(C)O)NC(=O)c5csc(n5)C3(CC2)NC(=O)C(C)NC(=O)C(=C)NC(=O)C(C)NC(=O)C(C(C)CC)NC2C=Cc3c(C(C)O)cc(nc3C2O)C(=O)OC4C)n1)C(N)=O (centres unmarked) [NSC170365] | 53.53% |
| O=P(O)(O)OC1OC(CO)C(O)C(O)C1O (centres unmarked) [NSC44138] | 105.48% |
| COc1ccc(O)c2c(=O)c3c(OC)cc4c(c3oc12)[C@@H]1C=CO[C@@H]1O4 [NSC178249] | 73.18% |
| CCC(C)c1cnc(CC(C)C)c(=O)n1O (centres unmarked) [NSC22939] | 88.97% |
| CO[C@@H]1/C=C\O[C@]2(C)Oc3c(C)c(O)c4c(O)c(c(CN(C)C)c(O)c4c3C2=O)NC(=O)/C(C)=C\C=C[C@@H](C)[C@@H](O)[C@H](C)[C@@H](O)[C@H](C)[C@H](OC(C)=O)[C@@H]1C [NSC145612] | 71.81% |
| COC1=CC23CCCN2CCc2cc4c(cc2C3C1O)OCO4 (centres unmarked) [NSC128487] | 118.57% |
| C[C@@H]1CC[C@H]2[C@@H](C)C(=O)O[C@@H]3O[C@@]4(C)CC[C@@H]1[C@]32OO4 [NSC369397] | 101.56% |
| CC(C)C[C@@H]1NC(=O)[C@H](C(C)C)NC(=O)[C@H](C(C)C)OC(=O)[C@@H](CC(C)C)N(C)C(=O)[C@@H](C(C)C)NC(=O)[C@H](C(C)C)OC1=O [NSC122224] (cyclo([Hiv]VL[Hiv][dV][dNMeL])) | 110.56% |
| COc1ccc2c(c1OC)CN1CCc3cc4c(cc3C1C2)OCO4 (centres unmarked) [NSC36351] | 108.61% |
| COC(=O)[C@H]1[C@H](O)[C@H](C)[C@@H](O)[C@](C)(O)/C=C(\C)C2=C3C(=C(C)C(=O)c4c(O)c(c(C)c(OC(C)=O)c43)NC(=O)/C(C)=C/C=C\[C@](C)(O)[C@@H](O)[C@@H](C)[C@H]1O)OCO2 [NSC156219] | 73.43% |
| COc1ccc2c(c1OC)-c1c(OC)c(OC)cc3c1[C@H](C2)N(C)CC3 [NSC785146] | 58.90% |
| COc1ccc2c3c([nH]c2c1)[C@H](C=C(C)C)N1C(=O)[C@@H]2CCCN2C(=O)[C@@H]1C3 [NSC719655] | 66.56% |
| C=C1C(=O)OC2CC(C)C3(O)CCC(=O)C3(C)CC12 (centres unmarked) [NSC361902] | 90.19% |

| SMILES | IN-GCN2 interaction (%) |
| --- | --- |
| CC[C@]12CCCN3CC[C@]4(C(=C(C(=O)OC)C1)Nc1ccccc14)[C@@H]32 [NSC785180] | 67.39% |
| CSC1SC[C@H]2C(=O)N(C)[C@@H](C(C)C)C(=O)OC[C@@H](NC(=O)c3cnc4ccccc4n3)C(=O)N[C@@H](C)C(=O)N(C)[C@@H]1C(=O)N(C)[C@@H](C(C)C)C(=O)OC[C@@H](NC(=O)c1cnc3ccccc3n1)C(=O)N[C@@H](C)C(=O)N2C (some centres unmarked) [NSC526417] | 53.14% |
| C[C@@H]1C[C@H](C)C[C@H](C)[C@@H](O)CC(=O)O[C@H]([C@@H]2CCC[C@H]2C(=O)O)C/C=C/C=C(/C#N)[C@H](O)[C@@H](C)C1 [NSC216128] | 89.16% |
| CN(N=O)C(=O)N[C@@H](C=O)[C@@H](O)[C@H](O)[C@H](O)CO [NSC85998] | 75.18% |
| COc1cc2c(cc1OC)C(=O)Cc1ccc3c(c1CN(C)CC2)OCO3 [NSC32984] | 91.01% |
| COc1ccc(C(=O)O[C@H]2CC[C@@]3(C)[C@@H]4CC[C@H]5[C@]6(O)C[C@H](O)[C@@]7(O)[C@@H](CN8C[C@@H](C)CC[C@H]8[C@@]7(C)O)[C@]6(O)C[C@@]53O[C@]24O)cc1OC [NSC7524] | 106.09% |
| Nc1ncnc2c1ncn2[C@@H]1O[C@H](COP(=O)(O)O)[C@@H](O)[C@H]1O [NSC20264] | 82.61% |
| CC1=C(O)C(=O)C=C2C1=CC=C1[C@@]2(C)CC[C@@]2(C)[C@@H]3C[C@](C)(C(=O)O)CC[C@]3(C)CC[C@]12C [NSC70931] | 100.77% |
| O=C1c2ccccc2C(=O)c2c1cc(O)c(O)c2O [NSC31754] | 87.55% |
| COc1cc2c(cc1OC)C(OC)N(C)c1c-2ccc2cc3c(cc12)OCO3 (centres unmarked) [NSC146396] | 90.77% |
| COC(=O)C1C(O)C(C)C(O)OC1C(C)C(O)C(C)C=CC=C(C)C(=O)Nc1c(C)c(OC(C)=O)c2c(c1O)C(=O)C(C)=C1OCOC(C(C)=CC(C)=O)=C12 (centres unmarked) [NSC169627] | 26.60% |
| Cc1c2ccncc2c(C)c2c1[nH]c1ccccc12 [NSC71795] | 107.18% |
| COC(=O)[C@@]12OC[C@]34[C@H]([C@@H](O)[C@@H]1O)[C@@]1(C)CC(=O)C(O)=C(C)[C@@H]1C[C@H]3OC(=O)[C@H](OC(=O)/C=C(\C)C(C)C)[C@@H]24 [NSC165563] | 97.95% |
| COc1ccc(-c2c(C)c(C(=O)O)nc(-c3ccc4c(O)c(OC)c5c(c4n3)=NC(C)(C)N=5)c2N)c(O)c1OC [NSC62709] | 123.77% |
| CO[C@@H]1[C@@H](OC(=O)c2ccc(C)[nH]2)[C@@H](O)[C@H](Oc2ccc3c(O)c(NC(=O)c4ccc(O)c(CC=C(C)C)c4)c(=O)oc3c2Cl)OC1(C)C [NSC227186] | 36.34% |
| COC1=CC(=O)C(C2CC(=O)c3c(O)cc(O)cc3O2)=CC1=O (centres unmarked) [NSC169517] | 98.58% |
| COc1cc(O)c(C(C)=O)c2c1C=CC(C)(C)O2 [NSC14135] | 87.24% |
| CCCCCC[C@@H](O)C/C=C\CCCCCCCC(=O)[O-].[Na+] [NSC2835] | 143.81% |
| COc1cc2c(cc1O)C[C@H]1c3c(cc(OC)c(OC)c3-2)CCN1C [NSC785189] | 31.39% |
| COC(=O)[C@@H]1[C@H]2C[C@H]3c4[nH]c5ccccc5c4CCN3C[C@@H]2CC[C@@H]1O [NSC19509] | 68.27% |
| COC(=O)[C@@]12OC[C@]34[C@H]([C@@H](O)[C@@H]1O)[C@@]1(C)CC(=O)C(O)=C(C)[C@@H]1C[C@H]3OC(=O)[C@H](OC(=O)C=C(C)C)[C@@H]24 [NSC172924] | 122.74% |
| COc1cc2c(cc1OC)CN1CCc3cc(OC)c(OC)cc3C1C2 (centres unmarked) [NSC10105] | 96.86% |
| COc1cc2cc(c1Cl)N(C)C(=O)C[C@H](OC(=O)[C@H](C)N(C)C(C)=O)[C@]1(C)O[C@H]1[C@H](C)[C@@H]1C[C@@](O)(NC(=O)O1)[C@H](OC)/C=C/C=C(\C)C2 [NSC153858] | 76.02% |
| CC1CCC2C(C)C3C(CC4C5CC=C6CC(OC7OC(CO)C(O)C(OC8OC(CO)C(O)C(O)C8O)C7OC7OC(C)C(O)C(O)C7O)CCC6(C)C5CCC43C)N2C1.Cl (centres unmarked) [NSC35611] | 109.39% |
| COc1cc2c(c(OC)c1OC)-c1ccc(OC)c(=O)cc1[C@@H](NC(C)=O)CC2 [NSC757] | 116.47% |
| O=C1c2cc(O)c(O)cc2OC(c2ccc(O)c(O)c2)C1O (centres unmarked) [NSC36398] | 108.22% |

Same assay, conditions: screen, single dose 100 µM, single replicate; residual AlphaLISA signal normalized to DMSO control; listed as 785159

| SMILES | IN-GCN2 interaction (%) |
| --- | --- |
| COc1cc2c3c(c1O)-c1ccccc1C[C@@H]3N(C)CC2 [NSC785159] | 94.21% |
